Results reported in ChEMBL document CHEMBL3232736, “Antiproliferative activities of halogenated thieno[3,2-d]pyrimidines” (Bioorg Med Chem, 2014).
≈ marks a conversion by molar mass, not a printed value. Calls of active or inactive are those of the source. The rule behind the calls is not given here.

How the values were obtained:
[1] = tested on: HeLa; test: Cytotoxicity against human HeLa cells assessed as reduction in cell number after 72 hrs by cell counting assay; type: functional, cell-based
[2] = tested on: L1210; test: Cytotoxicity against mouse L1210 cells assessed as reduction in cell number after 48 hrs by cell counting assay; type: functional, cell-based; details: L1210, 48 h
[3] = tested on: CCRF-CEM; test: Cytotoxicity against human CCRF-CEM cells assessed as reduction in cell number after 72 hrs by cell counting assay; type: functional, cell-based
[4] = tested on: Enterococcus faecalis; test: Antibacterial activity against vancomycin-resistant Enterococcus faecalis ATCC 51299 assessed as growth inhibition at 100 uM after 16 to 20 hrs by microbroth dilution method; type: functional, organism-based
[5] = tested on: Escherichia coli; test: Antibacterial activity against Escherichia coli ATCC 25922 assessed as growth inhibition at 100 uM after 16 to 20 hrs by microbroth dilution method; type: functional, organism-based
[6] = tested on: L1210; test: Induction of apoptosis in mouse L1210 cells assessed as late apoptosis at 5.4 uM after 48 hrs by Annexin-V/7-AAD staining-based flow cytometric analysis (reference value: 4.46%); type: functional
[7] = tested on: L1210; test: Cell cycle arrest in mouse L1210 cells at 5.4 uM after 24 to 48 hrs by propidium iodide staining-based flow cytometric analysis; type: functional
[8] = tested on: L1210; test: Induction of apoptosis in mouse L1210 cells assessed as early apoptosis at 5.4 uM after 48 hrs by Annexin-V/7-AAD staining-based flow cytometric analysis (rvb = 3.36%); type: functional
[9] = tested on: Bacillus spizizenii; test: Antibacterial activity against Bacillus subtilis ATCC 6633 assessed as growth inhibition at 100 uM after 16 to 20 hrs by microbroth dilution method; type: functional
[10] = tested on: L1210; test: Induction of apoptosis in mouse L1210 cells assessed as viable cell level at 5.4 uM after 48 hrs by Annexin-V/7-AAD staining-based flow cytometric analysis (reference value: 83%); type: functional
[11] = tested on: Vero; test: Cytotoxicity against African green monkey Vero cells assessed as reduction in cell number; type: cell-based; details: chlorocebus sabaeus
[12] = tested on: L1210; test: Induction of apoptosis in mouse L1210 cells assessed as necrotic cell level at 5.4 uM after 48 hrs by Annexin-V/7-AAD staining-based flow cytometric analysis (reference value: 8.13%); type: functional
[13] = tested on: Cryptococcus neoformans; test: Antifungal activity against Cryptococcus neoformans JEC20 assessed as growth inhibition after 48 hrs by microbroth dilution method; type: functional; details: JEC20, 48 h
[14] = tested on: HeLa; test: Cytotoxicity against human HeLa cells assessed as reduction in cell number; type: functional
[15] = tested on: Staphylococcus aureus; test: Antibacterial activity against methicillin-resistant Staphylococcus aureus subsp. aureus ATCC 43300 assessed as growth inhibition at 100 uM after 16 to 20 hrs by microbroth dilution method; type: functional, organism-based
[16] = tested on: Candida albicans; test: Antifungal activity against Candida albicans ATCC 10231 assessed as growth inhibition after 16 to 20 hrs by microbroth dilution method; type: functional
[17] = tested on: Pseudomonas aeruginosa; test: Antibacterial activity against Pseudomonas aeruginosa ATCC 27853 assessed as growth inhibition at 100 uM after 16 to 20 hrs by microbroth dilution method; type: functional, organism-based
[18] = tested on: HEL; test: Cytotoxicity against human HEL cells assessed as reduction in cell number by cell counting assay; type: functional
[19] = tested on: Cryptococcus neoformans; test: Antifungal activity against Cryptococcus neoformans B4546 assessed as growth inhibition after 48 hrs by microbroth dilution method; type: functional; details: B4546, 48 h
[20] = tested on: L1210; test: Cytotoxicity against mouse L1210 cells assessed as reduction in cell viability after 48 hrs by MTT assay; type: functional, cell-based; details: L1210, 48 h
[21] = tested on: Cryptococcus neoformans; test: Antifungal activity against Cryptococcus neoformans VANC-R265 assessed as growth inhibition at 100 uM after 48 hrs by microbroth dilution method; type: functional
[22] = tested on: Cryptococcus neoformans; test: Antifungal activity against Cryptococcus neoformans B4546 assessed as growth inhibition at 100 uM after 48 hrs by microbroth dilution method; type: functional
[23] = tested on: Candida albicans; test: Antifungal activity against Candida albicans ATCC 10231 assessed as growth inhibition at 100 uM after 16 to 20 hrs by microbroth dilution method; type: functional
[24] = tested on: Cryptococcus neoformans; test: Antifungal activity against Cryptococcus neoformans JEC20 assessed as growth inhibition at 100 uM after 48 hrs by microbroth dilution method; type: functional
[25] = tested on: Cryptococcus neoformans; test: Antifungal activity against Cryptococcus neoformans ATCC 66031 assessed as growth inhibition at 100 uM after 48 hrs by microbroth dilution method; type: functional

Nc1nc(Cl)nc2ccsc12
IC50 [1]: > 250 µM
IC50 [2]: > 250 µM
IC50 [3]: > 250 µM

COc1nc(OC)c2scc([C@H]3CC(=O)[C@@H](CO)O3)c2n1
IC50 [1]: > 250 µM
IC50 [2]: > 250 µM
IC50 [3]: > 250 µM

Clc1nc(Cl)c2scc(Br)c2n1
inhibition [4]: inactive
inhibition [5]: inactive
Activity [6]: 21.8%
Activity [7]: inactive
Activity [8]: 33.3%
inhibition [9]: inactive
IC50 [1]: 4.3 µM
IC50 [2]: 5.4 µM
IC50 [3]: 14 µM
Activity [10]: 43.1%
MIC99 [11]: 20 µM (≈ 5.68 µg/mL)
Activity [12]: 1.84%
MIC95 [13]: 5.8 µM (≈ 1.65 µg/mL)
MIC99 [14]: 20 µM (≈ 5.68 µg/mL)
inhibition [15]: inactive
MIC95 [16]: 10.7 µM (≈ 3.04 µg/mL)
inhibition [17]: inactive
MIC99 [18]: 20 µM (≈ 5.68 µg/mL)
MIC95 [19]: 7 µM (≈ 1.99 µg/mL)
IC50 [20]: 5.4 µM

Clc1ncc2sccc2n1
inhibition [5]: inactive
inhibition [21]: inactive
inhibition [22]: inactive
inhibition [9]: inactive
IC50 [1]: > 250 µM
IC50 [2]: > 250 µM
IC50 [3]: > 250 µM
inhibition [15]: inactive
inhibition [23]: inactive
inhibition [24]: inactive
inhibition [25]: inactive

COc1nc(OC)c2scc([C@H]3C[C@H](O)[C@@H](CO)O3)c2n1
IC50 [1]: > 250 µM
IC50 [2]: > 250 µM
IC50 [3]: > 250 µM

O=c1[nH]cc(F)c(=O)[nH]1 [FLUOROURACIL]
IC50 [2]: 0.33 µM

Nc1nc(Cl)nc2c(Br)csc12
IC50 [1]: 96 µM
IC50 [2]: 150 µM
IC50 [3]: 109 µM

O=c1[nH]c(=O)c2scc(Br)c2[nH]1
IC50 [1]: > 250 µM
IC50 [2]: > 250 µM
IC50 [3]: > 250 µM
